Assay results reported in patent US20230140290A1, “SALICYLAMIDE DERIVATIVES AND RELATED METHODS OF MAKING” (THE BOARD OF REGENTS OF THE UNIVERSITY OF TEXAS SY, priority 2020, published 2023).

Tests used:
HAdV5-GFP [1] = experiment: Plaque assay (inhibition of HAdV plaque formation); type: cell-based, HAdV-5; conditions: for Selectivity index (SI): ratio of CC50 to IC50 in plaque assay; for inhibition at 10 µM: read-out: Plaque Assay (%) Inhibition (10 μM); for IC50: read-out: Plaque Assay IC50 (μM), HAdV5-GFP, low MOI, 293β5 cell line
Method in brief: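 Cells at 80-90% confluency infected with HAdV5-GFP at 0.06 vp/cell, rocked 2 h at 37° C, then washed with PBS. Compounds tested at 10 μM and in dose-response from 10 to 0.3 μM, included in the post-infection mixture.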

A549 cells = experiment: Cytotoxicity assay (AlamarBlue); conditions: read-out: CC50 (μM), cytotoxic concentration 50%; A549 cell line, 48 h
Description: Cytotoxicity Assay. The cytotoxicity of the compounds was analyzed by commercial kit AlamarBlue® (Invitrogen, Ref. DAL1025). A549 cells at a density of 5×10^3 cells per well in 96-well plates were seeded. […] Cells were then incubated at 37° C. for 48 h following the kit protocol. The cytotoxic concentration 50 (CC50) value was obtained using the statistical package GraphPad Prism. This assay was performed in duplicate.

HAdV5-GFP [2] = experiment: Entry assay (HAdV5-mediated GFP expression); type: cell-based, HAdV-5; conditions: for inhibition at 50 µM: A549, 48 h, read-out: (%) Inhibition Entry Assay (50 μM); for IC50: A549, read-out: IC50 Entry Assay (μM), HAdV5-GFP, high MOI, A549 cell line
Description: Entry Assay. The anti-HAdV activity was measured in an entry assay using human A549 epithelial cells (3×10^5 cells/well in coming black wall, clear bottom 96-well plates) infected with HAdV5-GFP (2000 vp/cell) in the presence 50 μM of the candidates and in a dose-response assay. A standard infection curve was generated in parallel by infecting cells in the absence of compounds using serial 2-fold dilutions of virus. All reactions were done in triplicate. Cells, virus, and drugs were incubated for 48 h at 37° C. and 5% CO2.

wild-type HAdV5 = experiment: Nuclear-associated HAdV genomes (real-time PCR); type: cell-based, HAdV-5
Description: (§1) Nuclear-Associated HAdV Genomes. The nuclear delivery of HAdV genomes was assessed by real-time PCR following nuclear isolation from infected cells. […] Forty-five minutes after infection, A549 cells were trypsinized and collected and then washed twice with PBS. Then, cytoplasmic and nuclear fractions were separated using a hypotonic buffer solution and NP-40 detergent. The cell pellet was resuspended in 500 μL of 1×hypotonic buffer (20 mM Tris-HCl pH 7.4, 10 mM NaCl, 3 mM MgCl2) and incubated for 15 min at 4° C. Then, 25 μL of NP-40 was added and the samples were vortexed. The homogenates were centrifuged for 10 min at 835 g at 4° C. Following the removal of the cytoplasmic fraction (supernatant), HAdV DNA was isolated from the nuclear fraction (pellet) and from the cytoplasmic fraction using the QIAamp DNA Mini Kit (QIAGEN, Valencia, Calif.).
as §1, with “E.Z.N.A.® Tissue” for “QIAamp”, “DNA” for “DNA Mini”, “(Omega Bio-tek, Norcross, Ga.).” for “(QIAGEN, Valencia, Calif.).”

[3] = FIG. 3, 45 min post infection, concentrations by CC50 (2-50 μM)

Compound	Selectivity index (SI) (HAdV5-GFP [1])	inhibition at 10 µM (HAdV5-GFP [1]) [%]	IC50 (HAdV5-GFP [1]) [µM]	CC50 (A549 cells) [µM]	inhibition at 50 µM (HAdV5-GFP [2]) [%]	IC50 (HAdV5-GFP [2]) [µM]	amount of nuclear-associated HAdV genomes versus DMSO (wild-type HAdV5; FIG. 5A, 45 min post-infection, 10-fold plaque IC50)	amount of nuclear-associated HAdV genomes versus DMSO (wild-type HAdV5; [3])	Plaque Assay (%) Inhibition (10 μM) (HAdV5-GFP [1]; {})
CC(C)(Cc1ccccc1)ON(c1ccc(NC(=O)c2cc(Cl)ccc2O)c(Cl)c1)C(C)(C)Cc1ccccc1 [Compound 115, 5-Chloro-N-(2-chloro-4-((2-methyl-1-phenylpropan-2-yl)((2-methyl-1-phenylpropan-2-yl)oxy)amino)phenyl)-2-hydroxybenzamide]	129.7	100	1.27	165	59.1	34.1	no significant differences	–	–
CC(C)[C@H](NC(=O)c1cc(Cl)ccc1NS(C)(=O)=O)C(=O)Nc1ccc([N+](=O)[O-])cc1Cl [Compound 70, (S)-5-Chloro-N-(1-((2-chloro-4-nitrophenyl)amino)-3-methyl-1-oxobutan-2-yl)-2-(methylsulfonamido)benzamide]	256.0	99.1 ± 1.2	0.68	174	99.1 ± 1.2	1.38 ± 0.1	–	significant (p≤0.0001) reductions	–
CC[C@@H](C)[C@H](NC(=O)c1cc(Cl)ccc1O)C(=O)Nc1ccc([N+](=O)[O-])cc1Cl [Compound 62, 5-Chloro-N-((2S,3R)-1-((2-chloro-4-nitrophenyl)amino)-3-methyl-1-oxopentan-2-yl)-2-hydroxybenzamide]	127.6	99 ± 0.3	0.16	20.2	98.2 ± 0.5	2.5 ± 0.22	–	significant (p≤0.0001) reductions	–
O=C(Nc1ccc([N+](=O)[O-])cc1)c1cc(Cl)ccc1O [Compound 13, 5-Chloro-2-hydroxy-N-(4-nitrophenyl)benzamide]	–	98 ± 2.8	0.11	–	100	–	–	significant (p≤0.0001) reductions	–
O=C(Nc1ccc(NCc2cc(F)cc(Cl)c2)cc1Cl)c1cc(Cl)ccc1O [Compound 103, 5-Chloro-N-(2-chloro-4-((3-chloro-5-fluorobenzyl)amino)phenyl)-2-hydroxybenzamide]	8.7	98.8 ± 0.6	1.28 ± 0.02	11.1 ± 0.7	–	–	–	–	–
O=C(NCc1ccc(C(F)(F)F)c(F)c1)c1cc(Cl)ccc1O [Compound 36, 5-Chloro-N-(3-fluoro-4-(trifluoromethyl)benzyl)-2-hydroxybenzamide]	–	99 ± 1.5	1.4 ± 0.02	22.3 ± 7.2	–	–	–	–	–
O=C(Nc1ccc(NCc2cc(Cl)cc(Cl)c2)cc1Cl)c1cc(Cl)ccc1O [Compound 104, 5-Chloro-N-(2-chloro-4-((3,5-dichlorobenzyl)amino)phenyl)-2-hydroxybenzamide]	9.3	100	1.43 ± 0.17	13.3 ± 7.6	–	–	–	–	–
CC(C)[C@H](NC(=O)c1cc(Cl)ccc1O)C(=O)Nc1ccc(F)c(F)c1 [Compound 68, (S)-5-Chloro-N-(1-((3,4-difluorophenyl)amino)-3-methyl-1-oxobutan-2-yl)-2-hydroxybenzamide]	32.1	98.3 ± 2.4	2.96	95 ± 18.7	–	–	–	–	–
O=C(Nc1ccc(NCCCO)cc1Cl)c1cc(Cl)ccc1O [Compound 120, 5-Chloro-N-(2-chloro-4-((3-hydroxypropyl)amino)phenyl)-2-hydroxybenzamide]	–	36 ± 4.2	–	106	–	–	–	–	inactive
CCN(CC)c1ccc(NC(=O)c2cc(Cl)ccc2O)c(Cl)c1 [Compound 90, 5-Chloro-N-(2-chloro-4-(diethylamino)phenyl)-2-hydroxybenzamide]	64.5	100	0.86 ± 0.19	55.5 ± 10.2	–	–	–	–	–
O=C(Nc1ccc(F)c(F)c1)c1cc(Cl)ccc1O [Compound 15, 5-Chloro-N-(3,4-difluorophenyl)-2-hydroxybenzamide]	29.6	100	0.27	8	–	–	–	–	–
CC1(ON(c2ccc(NC(=O)c3cc(Cl)ccc3O)c(Cl)c2)C2(C)CCCC2)CCCC1 [Compound 93, 5-Chloro-N-(2-chloro-4-((1-methylcyclopentyl)((1-methylcyclopentyl)oxy)amino)phenyl)-2-hydroxybenzamide]	24.3	100	0.74	18	–	–	–	–	–
CN(C)c1ccc(NC(=O)c2cc(Cl)ccc2O)c(Cl)c1 [Compound 89, 5-Chloro-N-(2-chloro-4-(dimethylamino)phenyl)-2-hydroxybenzamide]	44.3	100	1.92 ± 0.23	85.1 ± 11.9	–	–	–	–	–
O=C(N[C@@H](Cc1ccccc1)C(=O)Nc1cc(C(F)(F)F)cc(C(F)(F)F)c1)c1cc(Cl)ccc1O [Compound 69, (S)—N-(1-((3,5-Bis(trifluoromethyl)phenyl)amino)-1-oxo-3-phenylpropan-2-yl)-5-chloro-2-hydroxybenzamide]	44.9	99 ± 1.4	0.4	17.9	–	–	–	–	–
CCCCCCC(C)Nc1ccc(NC(=O)c2cc(Cl)ccc2O)c(Cl)c1 (stereo not drawn) [Compound 83, 5-Chloro-N-(2-chloro-4-(octan-2-ylamino)phenyl)-2-hydroxybenzamide]	73.4	100	0.32	23.5 ± 3	–	–	–	–	–
O=C(Cc1cc(Cl)ccc1O)Nc1cc(F)cc(C(F)(F)F)c1 [Compound 53, 2-(5-Chloro-2-hydroxyphenyl)-N-(3-fluoro-5-(trifluoromethyl)phenyl)acetamide]	4.8	91 ± 3.6	4.92	23.7 ± 1.5	–	–	–	–	–
CCCNc1ccc(NC(=O)c2cc(Cl)ccc2O)c(Cl)c1 [Compound 80, 5-Chloro-N-(2-chloro-4-(propylamino)phenyl)-2-hydroxybenzamide]	4.5	100	5.04	22.5 ± 10.6	–	–	–	–	–
